Patent US20220274954A1, “SUBSTITUTED N-PHENYL-N-AMINOUARCILS AND SALTS THEREOF AND USE THEREOF AS HERBICIDAL AGENTS” (Bayer Aktiengesellschaft, priority 2019, published 2022)

Key:
Format in all cases: in vivo
Abutilon theophrasti = test: Post-emergence herbicidal action; conditions: for pest or weed control at 5 g/ha / pest or weed control at 20 g/ha: Abutilon theophrasti, 504 h, read-out: Abutilon theophrasti (efficacy in %)
Method: (§1) Seeds of monocotyledonous and dicotyledonous weeds and crop plants were placed in sandy loam in plastic or wood-fiber pots, covered with soil and cultivated in a greenhouse under controlled growth conditions. 2 to 3 weeks after sowing, the test plants were treated at the one-leaf stage. The compounds of the invention, formulated in the form of wettable powders (WP) or as emulsion concentrates (EC), were then sprayed onto the green parts of the plants as aqueous suspension or emulsion with addition of 0.5% additive at a water application rate of […] (converted). After the test plants had been kept in the greenhouse under optimum growth conditions for about 3 weeks, the activity of the preparations was rated visually in comparison to untreated controls. For example, 100% activity=the plants have died, 0% activity=like control plants. Tables A1 to A14 below show the effects of selected compounds of the general formula (I) according to Tables I.1 to I.34 on various harmful plants and at an application rate corresponding to 20 g/ha and less, which were obtained by the experimental procedure mentioned above.

Alopecurus myosuroides = test: Post-emergence herbicidal action
Method: as §1

Amaranthus retroflexus = test: Post-emergence herbicidal action; conditions: for pest or weed control at 5 g/ha / pest or weed control at 20 g/ha: Amaranthus retroflexus, 504 h, read-out: Amaranthus retroflexus (efficacy in %)
Method: as §1

Avena fatua = test: Post-emergence herbicidal action; conditions: application rate 20 g/ha
Method: as §1

Digitaria sanguinalis = test: Post-emergence herbicidal action; conditions: 504 h, read-out: Digitaria sanguinalis (efficacy in %); for pest or weed control at 5 g/ha: application rate 5 g/ha; for pest or weed control at 20 g/ha: application rate 20 g/ha
Method: as §1

Echinochloa crus-galli = test: Post-emergence herbicidal action; conditions: for pest or weed control at 5 g/ha / pest or weed control at 20 g/ha: Echinochloa crus-galli, 504 h, read-out: Echinochloa crus-galli (efficacy in %)
Method: as §1

Matricaria inodora = test: Post-emergence herbicidal action; conditions: for pest or weed control at 20 g/ha: Tripleurospermum inodorum, 504 h, read-out: Matricaria inodora (efficacy in %)
Method: as §1

Pharbitis purpurea = test: Post-emergence herbicidal action; conditions: for pest or weed control at 5 g/ha / pest or weed control at 20 g/ha: Ipomoea purpurea, 504 h, read-out: Pharbitis purpurea (efficacy in %)
Method: as §1

Polygonum convolvulus = test: Post-emergence herbicidal action; conditions: Fallopia convolvulus, 504 h, read-out: Polygonum convolvulus (efficacy in %); for pest or weed control at 5 g/ha: application rate 5 g/ha; for pest or weed control at 20 g/ha: application rate 20 g/ha
Method: as §1

Setaria viridis = test: Post-emergence herbicidal action; conditions: 504 h, read-out: Setaria viridis (efficacy in %); for pest or weed control at 5 g/ha: application rate 5 g/ha; for pest or weed control at 20 g/ha: application rate 20 g/ha
Method: as §1

Veronica persica = test: Post-emergence herbicidal action; conditions: for pest or weed control at 5 g/ha / pest or weed control at 20 g/ha: Veronica persica, 504 h, read-out: Veronica persica (efficacy in %)
Method: as §1

Viola tricolor = test: Post-emergence herbicidal action; conditions: for pest or weed control at 5 g/ha / pest or weed control at 20 g/ha: Viola tricolor, 504 h, read-out: Viola tricolor (efficacy in %)
Method: as §1

Oryza sativa = test: Post-emergence crop plant compatibility
Method: as §1, with “plants.” for “plants. Tables A1 to A14 below show the effects of selected compounds of the general formula (I) according to Tables I.1 to I.34 on various harmful plants and at an application rate corresponding to 20 g/ha and less, which were obtained by the experimental procedure mentioned above.”
(§2) Here, the observed effects on selected crop plants are stated in comparison to the untreated controls (values in %).

Triticum aestivum = test: Post-emergence crop plant compatibility
Method: as §1, with “plants.” for “plants. Tables A1 to A14 below show the effects of selected compounds of the general formula (I) according to Tables I.1 to I.34 on various harmful plants and at an application rate corresponding to 20 g/ha and less, which were obtained by the experimental procedure mentioned above.”
as §2

Zea mays = test: Post-emergence crop plant compatibility
Method: as §1, with “plants.” for “plants. Tables A1 to A14 below show the effects of selected compounds of the general formula (I) according to Tables I.1 to I.34 on various harmful plants and at an application rate corresponding to 20 g/ha and less, which were obtained by the experimental procedure mentioned above.”
as §2

Stellaria media = test: Post-emergence herbicidal action
Method: as §1

Brassica napus = test: Post-emergence crop plant compatibility
Method: as §1, with “plants.” for “plants. Tables A1 to A14 below show the effects of selected compounds of the general formula (I) according to Tables I.1 to I.34 on various harmful plants and at an application rate corresponding to 20 g/ha and less, which were obtained by the experimental procedure mentioned above.”
as §2

Glycine max = test: Post-emergence crop plant compatibility
Method: as §1, with “plants.” for “plants. Tables A1 to A14 below show the effects of selected compounds of the general formula (I) according to Tables I.1 to I.34 on various harmful plants and at an application rate corresponding to 20 g/ha and less, which were obtained by the experimental procedure mentioned above.”
as §2

Lolium rigidum = test: Post-emergence herbicidal action; conditions: application rate 20 g/ha
Method: as §1

Oryza sativa (efficacy in %) (Oryza sativa; application rate 1.25 g/ha) [%] | Oryza sativa (efficacy in %) (Oryza sativa; application rate 5 g/ha) [%] | Structure (SMILES) | pest or weed control at 5 g/ha (Abutilon theophrasti; application rate 5 g/ha) [%] | pest or weed control at 20 g/ha (Abutilon theophrasti; application rate 20 g/ha) [%] | Alopecurus myosuroides (efficacy in %) (Alopecurus myosuroides; application rate 20 g/ha) [%] | pest or weed control at 5 g/ha (Amaranthus retroflexus; application rate 5 g/ha) [%] | pest or weed control at 20 g/ha (Amaranthus retroflexus; application rate 20 g/ha) [%] | pest or weed control at 20 g/ha (Digitaria sanguinalis) [%] | pest or weed control at 20 g/ha (Echinochloa crus-galli; application rate 20 g/ha) [%] | pest or weed control at 20 g/ha (Matricaria inodora; application rate 20 g/ha) [%] | pest or weed control at 5 g/ha (Pharbitis purpurea; application rate 5 g/ha) [%] | pest or weed control at 20 g/ha (Pharbitis purpurea; application rate 20 g/ha) [%] | pest or weed control at 5 g/ha (Polygonum convolvulus) [%] | pest or weed control at 20 g/ha (Polygonum convolvulus) [%] | pest or weed control at 5 g/ha (Setaria viridis) [%] | pest or weed control at 20 g/ha (Setaria viridis) [%] | pest or weed control at 5 g/ha (Veronica persica; application rate 5 g/ha) [%] | pest or weed control at 20 g/ha (Veronica persica; application rate 20 g/ha) [%] | pest or weed control at 5 g/ha (Viola tricolor; application rate 5 g/ha) [%] | pest or weed control at 20 g/ha (Viola tricolor; application rate 20 g/ha) [%] | other results
0 |  | Nn1c(C(F)(F)F)cc(=O)n(-c2cc(Sc3cccnc3OCC(=O)OCc3ccccc3)c(Cl)cc2F)c1=O [I.1-457, Benzyl {[3-({5-[3-amino-2,6-dioxo-4-(trifluoromethyl)-3,6-dihydropyrimidin-1(2H)-yl]-2-chloro-4-fluorophenyl}sulfanyl)pyridin-2-yl]oxy}acetate] | 100 | 100 | 80 | 100 | 100 | 100 | 100 | 90 | 100 | 100 | 100 | 100 | 100 | 100 | 100 | 100 | 100 | 100 | Alopecurus myosuroides (efficacy in %) (Alopecurus myosuroides; application rate 5 g/ha): 80%; Avena fatua (efficacy in %) (Avena fatua): 80%; pest or weed control at 5 g/ha (Digitaria sanguinalis): 100%; pest or weed control at 5 g/ha (Echinochloa crus-galli; application rate 5 g/ha): 80%; Triticum aestivum (efficacy in %) (Triticum aestivum; application rate 1.25 g/ha): 20%; Zea mays (efficacy in %) (Zea mays; application rate 1.25 g/ha): 20%
0 | 10 | Nn1c(C(F)(F)F)cc(=O)n(-c2cc(Sc3cccnc3OCCC(=O)OCc3ccccc3)c(Cl)cc2F)c1=O [I.5-457, Benzyl 3-{[3-({5-[3-amino-2,6-dioxo-4-(trifluoromethyl)-3,6-dihydropyrimidin-1(2H)-yl]-2-chloro-4-fluorophenyl}sulfanyl)pyridin-2-yl]oxy}propanoate] |  | 80 |  | 100 |  |  | 80 |  | 90 | 90 | 90 | 100 | 100 | 100 | 100 | 100 | 100 |  | Stellaria media (efficacy in %) (Stellaria media; application rate 5 g/ha): 80%; Stellaria media (efficacy in %) (Stellaria media; application rate 20 g/ha): 100%; Brassica napus (efficacy in %) (Brassica napus; application rate 1.25 g/ha): 0%; Brassica napus (efficacy in %) (Brassica napus; application rate 5 g/ha): 10%; Glycine max (efficacy in %) (Glycine max; application rate 1.25 g/ha): 0%; Glycine max (efficacy in %) (Glycine max; application rate 5 g/ha): 10%; Triticum aestivum (efficacy in %) (Triticum aestivum; application rate 5 g/ha): 20%; Zea mays (efficacy in %) (Zea mays; application rate 5 g/ha): 20%
 | 20 | COC(=O)CCCOc1ncccc1Sc1cc(-n2c(=O)cc(C(F)(F)F)n(N)c2=O)c(F)cc1Cl [I.6-441, Methyl 4-{[3-({5-[3-amino-2,6-dioxo-4-(trifluoromethyl)-3,6-dihydropyrimidin-1(2H)-yl]-2-chloro-4-fluorophenyl}sulfanyl)pyridin-2-yl]oxy}butanoate] | 100 | 100 | 80 | 100 | 100 | 100 | 90 | 80 | 80 | 90 | 100 | 100 | 90 | 100 | 100 | 100 | 100 | 100 | pest or weed control at 5 g/ha (Digitaria sanguinalis): 80%; pest or weed control at 5 g/ha (Echinochloa crus-galli; application rate 5 g/ha): 80%; Stellaria media (efficacy in %) (Stellaria media; application rate 5 g/ha): 100%; Stellaria media (efficacy in %) (Stellaria media; application rate 20 g/ha): 100%; Brassica napus (efficacy in %) (Brassica napus; application rate 1.25 g/ha): 20%; Triticum aestivum (efficacy in %) (Triticum aestivum; application rate 5 g/ha): 20%; Zea mays (efficacy in %) (Zea mays; application rate 1.25 g/ha): 10%; Zea mays (efficacy in %) (Zea mays; application rate 5 g/ha): 20%
10 | 20 | Nn1c(C(F)(F)F)cc(=O)n(-c2cc(Sc3cccnc3OCC(=O)O)c(Cl)cc2F)c1=O [I.1-481] |  |  | 100 |  |  |  |  |  |  |  |  |  |  |  |  |  |  |  | Abutilon theophrasti (efficacy in %) (Abutilon theophrasti; application rate 5 g/ha): 100%; Abutilon theophrasti (efficacy in %) (Abutilon theophrasti; application rate 20 g/ha): 100%; Alopecurus myosuroides (efficacy in %) (Alopecurus myosuroides; application rate 5 g/ha): 100%; Amaranthus retroflexus (efficacy in %) (Amaranthus retroflexus; application rate 5 g/ha): 100%; Amaranthus retroflexus (efficacy in %) (Amaranthus retroflexus; application rate 20 g/ha): 100%; Echinochloa crus-galli (efficacy in %) (Echinochloa crus-galli; application rate 5 g/ha): 90%; Echinochloa crus-galli (efficacy in %) (Echinochloa crus-galli; application rate 20 g/ha): 100%; Lolium rigidum (efficacy in %) (Lolium rigidum): 80%; Matricaria inodora (efficacy in %) (Matricaria inodora; application rate 5 g/ha): 90%; Matricaria inodora (efficacy in %) (Matricaria inodora; application rate 20 g/ha): 100%; Pharbitis purpurea (efficacy in %) (Pharbitis purpurea; application rate 5 g/ha): 80%; Pharbitis purpurea (efficacy in %) (Pharbitis purpurea; application rate 20 g/ha): 100%; Veronica persica (efficacy in %) (Veronica persica; application rate 5 g/ha): 100%; Veronica persica (efficacy in %) (Veronica persica; application rate 20 g/ha): 100%; Viola tricolor (efficacy in %) (Viola tricolor; application rate 5 g/ha): 100%; Viola tricolor (efficacy in %) (Viola tricolor; application rate 20 g/ha): 100%; Triticum aestivum (efficacy in %) (Triticum aestivum; application rate 1.25 g/ha): 20%
 | 0 | CCOC(=O)C(C)Oc1ncccc1Sc1cc(-n2c(=O)cc(C(F)(F)F)n(N)c2=O)c(F)cc1Cl (centres unmarked) [I.2-442, Ethyl 2-{[3-({5-[3-amino-2,6-dioxo-4-(trifluoromethyl)-3,6-dihydropyrimidin-1(2H)-yl]-2-chloro-4-fluorophenyl}sulfanyl)pyridin-2-yl]oxy}propanoate] | 100 | 100 |  | 100 | 100 | 100 | 100 | 90 |  |  | 100 | 100 | 100 | 100 | 100 | 100 | 100 | 100 | Stellaria media (efficacy in %) (Stellaria media; application rate 5 g/ha): 80%; Stellaria media (efficacy in %) (Stellaria media; application rate 20 g/ha): 100%; Glycine max (efficacy in %) (Glycine max; application rate 1.25 g/ha): 10%; Triticum aestivum (efficacy in %) (Triticum aestivum; application rate 5 g/ha): 20%; Zea mays (efficacy in %) (Zea mays; application rate 1.25 g/ha): 10%; Zea mays (efficacy in %) (Zea mays; application rate 5 g/ha): 20%
